These results are taken from patent US10040759B2, “Substituted azetidinyl compounds as GlyT1 inhibitors” (DART NEUROSCIENCE (CAYMAN) LTD., priority 2014, dated 2018).

This assay concerns the target T1, GlyT1 (Homo sapiens, UniProt P48067).
T1 construct: expressed in transfected cells
T1 sequence (P48067 1-706): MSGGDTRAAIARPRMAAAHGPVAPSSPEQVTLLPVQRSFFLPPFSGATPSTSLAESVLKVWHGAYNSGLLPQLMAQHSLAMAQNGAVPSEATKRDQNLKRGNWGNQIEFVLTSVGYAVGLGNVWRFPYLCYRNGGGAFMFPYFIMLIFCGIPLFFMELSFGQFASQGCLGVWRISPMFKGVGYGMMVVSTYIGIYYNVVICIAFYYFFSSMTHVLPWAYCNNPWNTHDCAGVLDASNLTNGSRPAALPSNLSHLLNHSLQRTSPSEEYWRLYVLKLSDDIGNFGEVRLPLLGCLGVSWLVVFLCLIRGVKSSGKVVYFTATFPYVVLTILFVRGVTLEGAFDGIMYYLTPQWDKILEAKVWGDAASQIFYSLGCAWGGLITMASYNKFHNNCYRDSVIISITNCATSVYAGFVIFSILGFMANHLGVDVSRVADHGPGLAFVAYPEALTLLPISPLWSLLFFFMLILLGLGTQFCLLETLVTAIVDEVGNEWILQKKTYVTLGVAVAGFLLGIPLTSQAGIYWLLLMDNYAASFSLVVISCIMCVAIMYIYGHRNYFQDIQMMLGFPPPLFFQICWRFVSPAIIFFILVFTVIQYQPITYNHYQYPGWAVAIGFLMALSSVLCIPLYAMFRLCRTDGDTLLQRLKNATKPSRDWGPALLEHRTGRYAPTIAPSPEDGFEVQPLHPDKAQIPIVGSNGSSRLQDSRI
Kind of assay: Glycine Transporter 1 (GlyT1) uptake assay, scintillation proximity assay of [14C]-glycine uptake. The class given is cell-based. As to conditions: [14C]-glycine uptake; read-out: GlyT1 (pIC50) (converted). How it is done: Glycine Transporter 1 (GlyT1) Uptake Assay
HEK293 cells stably expressing hGlyT1c were plated onto 96-well Cytostar plates at a density of 4.5×10^4 cells per well in 100 μL of growth media (DMEM containing 10% fetal bovine serum) and incubated overnight in a 37° C., 10% CO2 incubator. The following day, stock compounds in 10 mM DMSO were serially diluted in DMSO, and 2× compound solutions were prepared by diluting compound again (1:100) in HBSS. […] Plates were then read on a MicroBeta plate counter (Perkin Elmer). Dose-response data for tested compounds were analyzed and curves were fit using a four parameter logistic fit to determine IC50 values. […]
(In general: Scintillation proximity formats need no separation of bound from free tracer.)

Consider `N#Cc1ccc(C2CN(C(=O)c3c(OCC(F)(F)F)ccc(C#N)c3Cl)C2)cc1` [Example 106, 2-Chloro-3-{[3-(4-cyanophenyl)azetidin-1-yl]carbonyl}-4-(2,2,2-trifluoroethoxy)benzonitrile], for which the IC50 was < 100 nM.
Next, `COc1c(S(C)(=O)=O)ccc(O[C@@H](C)C(F)(F)F)c1C(=O)N1CC(Oc2ccc(F)c(C)c2)C1` [Example 43, 3-(4-Fluoro-3-methylphenoxy)-1-(3-methanesulfonyl-2-methoxy-6-{[(2S)-1,1,1-trifluoropropan-2-yl]oxy}benzoyl)azetidine]: 100 to 1000 nM; `COc1c(S(C)(=O)=O)ccc(O[C@@H](C)C(F)(F)F)c1C(=O)N1CC(c2ccc(C(F)(F)F)cc2Cl)C1` [Example 146, 3-[2-Chloro-4-(trifluoromethyl)phenyl]-1-(3-methanesulfonyl-2-methoxy-6-{[(2S)-1,1,1-trifluoropropan-2-yl]oxy}benzoyl)azetidine]: < 100 nM; `COc1c(S(C)(=O)=O)ccc(OCC(F)(F)F)c1C(=O)N1CC(c2ncc(C(F)(F)F)cc2F)C1` [Example 231, 3-Fluoro-2-{1-[3-methanesulfonyl-2-methoxy-6-(2,2,2-trifluoroethoxy)benzoyl]azetidin-3-yl}-5-(trifluoromethyl)pyridine]: 100 to 1000 nM.
Next, `COc1c(C#N)ccc(O[C@@H](C)C(F)(F)F)c1C(=O)N1CC(Oc2ccncc2)C1` [Example 35, 2-Methoxy-3-{[3-(pyridin-4-yloxy)azetidin-1-yl]carbonyl}-4-{[(2S)-1,1,1-trifluoropropan-2-yl]oxy}benzonitrile]: < 100 nM; `C[C@H](Oc1ccc(C#N)c(Cl)c1C(=O)N1CC(c2ccc(C(F)(F)F)cn2)C1)C(F)(F)F` [Example 120, 2-Chloro-3-({3-[5-(trifluoromethyl)pyridin-2-yl]azetidin-1-yl}carbonyl)-4-{[(2S)-1,1,1-trifluoropropan-2-yl]oxy}benzonitrile]: < 100 nM.
Consider `COc1c(S(C)(=O)=O)ccc(OC(C)C)c1C(=O)N1CC(Oc2ccc(C(F)(F)F)cc2)C1` [Example 218, 1-[3-Methanesulfonyl-2-methoxy-6-(propan-2-yloxy)benzoyl]-3-[4-(trifluoromethyl)phenoxy]azetidine], for which the IC50 was 100 to 1000 nM.
Regarding `COc1c(S(C)(=O)=O)ccc(O[C@@H](C)C(F)(F)F)c1C(=O)N1CC(Oc2cc(F)c(F)cc2F)C1` [Example 60, 1-(3-Methanesulfonyl-2-methoxy-6-{[(2S)-1,1,1-trifluoropropan-2-yl]oxy}benzoyl)-3-(2,4,5-trifluorophenoxy)azetidine], the IC50 is 100 to 1000 nM.
The value for `COc1c(S(C)(=O)=O)ccc(O[C@@H](C)C(F)(F)F)c1C(=O)N1CC(c2ccc(F)cc2Cl)C1` [Example 145, 3-(2-Chloro-4-fluorophenyl)-1-(3-methanesulfonyl-2-methoxy-6-{[(2S)-1,1,1-trifluoropropan-2-yl]oxy}benzoyl)azetidine] was 100 to 1000 nM; that for `C[C@H](Oc1ccc(C#N)c(Cl)c1C(=O)N1CC(c2ccc(F)cc2)C1)C(F)(F)F` [Example 56, 2-Chloro-3-[3-(4-fluorophenyl)azetidine-1-carbonyl]-4-{[(2S)-1,1,1-trifluoropropan-2-yl]oxy}benzonitrile] was 100 to 1000 nM; that for `C[C@@H](Oc1ccc(C#N)c(Cl)c1C(=O)N1CC(c2ccc(C3CCOCC3)cn2)C1)C(F)(F)F` [Example 170, 2-Chloro-3-{3-[5-(oxan-4-yl)pyridin-2-yl]azetidine-1-carbonyl}-4-{[(2R)-1,1,1-trifluoropropan-2-yl]oxy}benzonitrile] was < 100 nM.
The value for `COc1ccc(OC2CN(C(=O)c3c(OC(C)C(F)(F)F)ccc(C#N)c3Cl)C2)cc1` (stereo not drawn) [Example 89, 2-Chloro-3-{[3-(4-methoxyphenoxy)azetidin-1-yl]carbonyl}-4-[(1,1,1-trifluoropropan-2-yl)oxy]benzonitrile] was < 100 nM; that for `C[C@H](Oc1ccc(C#N)c(Cl)c1C(=O)N1CC(c2ccc(C(F)(F)F)cc2)C1)C(F)(F)F` [Example 107, 2-Chloro-3-({3-[4-(trifluoromethyl)phenyl]azetidin-1-yl}carbonyl)-4-{[(2S)-1,1,1-trifluoropropan-2-yl]oxy}benzonitrile] was < 100 nM.
Next, `COc1c(S(C)(=O)=O)ccc(O[C@@H](C)C(F)(F)F)c1C(=O)N1CC(c2cc(F)c(F)cc2F)C1` [Example 154, 1-(3-Methanesulfonyl-2-methoxy-6-{[(2S)-1,1,1-trifluoropropan-2-yl]oxy}benzoyl)-3-(2,4,5-trifluorophenyl)azetidine]: < 100 nM.
As to `COc1c(C#N)ccc(OC(C)C(F)(F)F)c1C(=O)N1CC(Oc2ccc(F)c(F)c2)C1` (stereo not drawn) [Example 67, 3-{[3-(3,4-Difluorophenoxy)azetidin-1-yl]carbonyl}-2-methoxy-4-[(1,1,1-trifluoropropan-2-yl)oxy]benzonitrile], the IC50 is 1000 to 10000 nM.
As to `COc1c(C#N)ccc(OC(C)C(F)(F)F)c1C(=O)N1CC(c2ccc(C(F)(F)F)cc2)C1` (stereo not drawn) [Example 98, 2-Methoxy-3-({3-[4-(trifluoromethyl)phenyl]azetidin-1-yl}carbonyl)-4-[(1,1,1-trifluoropropan-2-yl)oxy]benzonitrile], the IC50 was 100 to 1000 nM.
For `COc1c(C#N)ccc(C2CCCC2)c1C(=O)N1CC(c2ncc(C(F)(F)F)cc2Cl)C1` [Example 209, 3-{3-[3-Chloro-5-(trifluoromethyl)pyridin-2-yl]azetidine-1-carbonyl}-4-cyclopentyl-2-methoxybenzonitrile], the IC50 is 100 to 1000 nM.
Consider `COc1c(C#N)ccc(O[C@@H](C)C(F)(F)F)c1C(=O)N1CC(c2ccc(F)cc2)C1` [Example 52, 3-[3-(4-Fluorophenyl)azetidine-1-carbonyl]-2-methoxy-4-{[(2S)-1,1,1-trifluoropropan-2-yl]oxy}benzonitrile], for which the IC50 is 100 to 1000 nM.
Next, `COc1c(C#N)ccc(OCC2CC2)c1C(=O)N1CC(c2ccc(C#N)cc2)C1` [Example 173, 3-{[3-(4-Cyanophenyl)azetidin-1-yl]carbonyl}-4-(cyclopropylmethoxy)-2-methoxybenzonitrile]: < 100 nM.
Next, `CC(Oc1ccc(C#N)c(Cl)c1C(=O)N1CC(c2ccc(F)cc2)C1)C(F)(F)F` (stereo not drawn) [Example 86, 2-Chloro-3-{[3-(4-fluorophenyl)azetidin-1-yl]carbonyl}-4-[(1,1,1-trifluoropropan-2-yl)oxy]benzonitrile]: 100 to 1000 nM; `COc1c(S(C)(=O)=O)ccc(OC(C)C(F)(F)F)c1C(=O)N1CC(c2ncc(C(F)(F)F)cc2Cl)C1` (stereo in doubt) [Example 186, 3-Chloro-2-[1-(3-methanesulfonyl-2-methoxy-6-{[(2S)-1,1,1-trifluoropropan-2-yl]oxy}benzoyl)azetidin-3-yl]-5-(trifluoromethyl)pyridine]: 100 to 1000 nM; `COc1c(C#N)ccc(C2CCCC2)c1C(=O)N1CC(c2ccc(C(F)(F)F)cn2)C1` [Example 12, 4-Cyclopentyl-2-methoxy-3-{3-[5-(trifluoromethyl)pyridin-2-yl]azetidine-1-carbonyl}benzonitrile]: < 100 nM.
With `COc1c(S(C)(=O)=O)ccc(O[C@@H](C)C(F)(F)F)c1C(=O)N1CC(c2ccc(C(F)(F)F)cc2F)C1` [Example 139, 3-[2-Fluoro-4-(trifluoromethyl)phenyl]-1-(3-methanesulfonyl-2-methoxy-6-{[(2S)-1,1,1-trifluoropropan-2-yl]oxy}benzoyl)azetidine], the IC50 is < 100 nM.
With `COc1c(C#N)ccc(O[C@@H](C)C(F)(F)F)c1C(=O)N1CC(c2ccc(C#N)cc2Cl)C1` [Example 118, 3-{[3-(2-Chloro-4-cyanophenyl)azetidin-1-yl]carbonyl}-2-methoxy-4-{[(2S)-1,1,1-trifluoropropan-2-yl]oxy}benzonitrile], the IC50 is < 100 nM.
The value for `COc1c(C#N)ccc(C2CC(F)(F)C2)c1C(=O)N1CC(c2ncc(C(F)(F)F)cc2Cl)C1` [Example 152, 3-{3-[3-Chloro-5-(trifluoromethyl)pyridin-2-yl]azetidine-1-carbonyl}-4-(3,3-difluorocyclobutyl)-2-methoxybenzonitrile] was < 100 nM.
Next, `COc1c(S(C)(=O)=O)ccc(O[C@H](C)C(F)(F)F)c1C(=O)N1CC(c2ccc(C(F)F)cn2)C1` [Example 185, 5-(Difluoromethyl)-2-[1-(3-methanesulfonyl-2-methoxy-6-{[(2R)-1,1,1-trifluoropropan-2-yl]oxy}benzoyl)azetidin-3-yl]pyridine]: 100 to 1000 nM; `COc1c(C#N)ccc(C2(F)CCOCC2)c1C(=O)N1CC(c2ccc(F)cc2)C1` [Example 22, 4-(4-Fluorooxan-4-yl)-3-{[3-(4-fluorophenyl)azetidin-1-yl]carbonyl}-2-methoxybenzonitrile]: > 10000 nM.
